Measurements: EP2790511B1 (Merck Sharp & Dohme Corp., priority 2011, dated 2013)
Read-outs that look alike come from different tables or passages of the source.

Target: T1, hROMK (hKir1.1) (Homo sapiens, UniProt P48048)
T1 construct: expressed in transfected cells
T1 sequence (P48048 1-391): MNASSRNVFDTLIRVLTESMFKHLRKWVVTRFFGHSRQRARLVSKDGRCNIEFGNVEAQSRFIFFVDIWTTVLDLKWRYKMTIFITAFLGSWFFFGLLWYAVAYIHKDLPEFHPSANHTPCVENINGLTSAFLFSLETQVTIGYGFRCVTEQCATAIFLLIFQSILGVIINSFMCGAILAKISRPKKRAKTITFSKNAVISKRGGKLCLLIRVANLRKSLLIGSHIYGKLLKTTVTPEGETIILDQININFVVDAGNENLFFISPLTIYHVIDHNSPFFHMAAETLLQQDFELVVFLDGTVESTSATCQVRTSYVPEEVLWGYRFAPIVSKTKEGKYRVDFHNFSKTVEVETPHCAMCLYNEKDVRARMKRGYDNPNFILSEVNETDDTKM
Assay: Thallium Flux Assay
Format: cell-based
Summary of the method: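 HEK293 cells stably expressing hROMK, loaded with FluxOR dye 90 min at ambient temperature, then compound 30 min with 0.3 mM ouabain in probenecid buffer pH 7.4.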

[1] = HEK293 cells stably expressing hROMK (hKir1.1), FLIPR-Tetra, read-out: Thallium Flux IC50

Compound | IC50 (Thallium Flux IC50) [µM] | IC50 [1] [µM] | other results
Cc1c([C@@H]2CN3CCN(C(=O)Cc4ccc(-n5nnnc5C)cn4)C[C@H]3CO2)ccc(F)c1C#N [Example 162, 6-fluoro-2-methyl-3-[(3R,9aS)-8-{[5-(5-methyl-1H-tetrazol-1-vl)pvridin-2-yl]acetyl}octahydropyrazino[2,1-c][1,4]oxazin-3-yl]benzonitrile] | 0.17 |  | 
COc1c([C@@H]2CN3CCN(C(=O)Cc4ccc(-n5cnnn5)nc4)C[C@H]3CO2)ccc(F)c1C#N [Example 60, 6-fluoro-2-methoxy-3-[(3R,9aS)-8-{[6-(1H-tetrazol-1-vl)pvridin-3-yl]acetyl}octahydropyrazino[2,1-c][1,4]oxazin-3-yl]benzonitrile] |  | 0.14 | 
Cc1c([C@H]2CN3CCN(C(=O)Cc4ccnc(-n5cnnn5)c4)C[C@H]3CO2)ccc(F)c1C#N [Example 100] |  | 0.19 | 
Cc1cc(CC(=O)N2CCN3C[C@H](c4ccc(F)c(C#N)c4C)OC[C@@H]3C2)ncc1-n1cnnn1 [Example 130, 6-fluoro-2-methyl-3-[(3S,9aS)-8-{[4-methyl-5-(1H-tetrazol-1-yl)pyridin-2-yl]acetyl}octahydropyrazino[2,1-c][1,4]oxazin-3-yl]benzonitrile] | 0.19 |  | 
Cc1c([C@H]2CN3CCN(C(=O)Cc4ccc(-n5cnnn5)cn4)C[C@H]3CN2)ccc(F)c1C#N [Example 191, 6-fluoro-2-methyl-3-[(3S,9aR)-8-{[5-(1H-tetrazol-1-yl)pyridin-2-yl]acetyl}octahydro-2H-pyrazino[1,2-a]pyrazin-3-yl]benzonitrile] |  | 0.12 | 
Cc1nc(-n2cnnn2)ncc1CC(=O)N1CCN2C[C@@H](c3ccc(F)c(C#N)c3C)OC[C@@H]2C1 [Example 118, 6-fluoro-2-methyl-3-[(3R,9aS)-8-{[4-methyl-2-(1H-tetrazol-1-vl)pvrimidin-5-yl]acetyl}octahydropyrazino[2,1-c][1,4]oxazin-3-yl]benzonitrile] | 0.12 |  | 
N#Cc1cc([C@@H]2CN3CCN(C(=O)Cc4cnc(-n5cnnn5)nc4)C[C@@H]3CO2)ccc1F [Example 141, 2-fluoro-5-[(3R,9aR)-8-{[2-(1H-tetrazol-1-yl)pyrimidin-5-yl]acetyl}octahydropyrazino[2,1-c][1,4]oxazin-3-yl]benzonitrile] |  | 0.3 | 
C[C@H]1Cc2cc([C@]3(C)CN4CCN(C(=O)Cc5ccc(-n6cnnn6)nc5)C[C@H]4CO3)ccc2C(=O)O1 [Example 106, (3S)-3-methyl-6-[(3R,9aS)-3-methyl-8-{[6-(1H-tetrazol-1-yl)pyridin-3-yl]acetyl}octahydropyrazino[2,1-c][1,4]oxazin-3-yl]-3,4-dihydro-1H-isochromen-1-one] |  | 0.42 | 
N#Cc1c(F)ccc([C@H]2CN3CCN(C(=O)Cc4ccc(-n5cnnn5)nc4)C[C@H]3CO2)c1C1CC1 [Example 181, 2-cyclopropyl-6-fluoro-3-[(3S,9aS)-8-{[6-(1H-tetrazol-1-vl)pvridin-3-yl]acetyl}octahydropyrazino[2,1-c][1,4]oxazin-3-yl]benzonitrile] | 0.38 |  | 
Cc1c([C@@H]2CN3CCN(C(=O)Cc4ccc(-n5cnnn5)nc4)C[C@H]3CO2)ccc(F)c1C#N [Example 5, 6-fluoro-2-methyl-3-[(3R,9aS)-8-{[6-(1H-tetrazol-1-yl)pyridin-3-yl]acetyl}octahydropyrazino[2,1-c][1,4]oxazin-3-yl]benzonitrile] | 0.05 |  | 
N#Cc1c(F)ccc([C@@H]2CN3CCN(C(=O)Cc4ccc(-n5cnnn5)cn4)C[C@H]3CO2)c1Cl [Example 53] |  | 0.06 | 
N#Cc1c(F)ccc([C@H]2CN3CCN(C(=O)Cc4ccc(-n5cnnn5)cn4)C[C@H]3CO2)c1F [Example 86] |  | 0.29 | 
Cc1c(C2CN3CCN(C(=O)Cc4ccc(-n5cnnn5)nc4)CC3CCO2)ccc2c1COC2=O (single isomer, unassigned) [Example 164, 4-methyl-5-(2-{(6-(1H-tetrazol-1-yl)pyridin-3-yl]acetyl}octahydro-2H-pyrazino[1,2-d][1,4]oxazepin-7-yl)-2-benzofuran-1(3H)-one] | 0.65 |  | 
COc1cc([C@H]2CN3CCN(C(=O)Cc4cnc(-n5cnnn5)nc4)C[C@H]3CO2)ccc1C#N [Example 143, 2-methoxy-4-[(3S,9aS)-8-{[2-(1H-tetrazol-1-yl)pyrimidin-5-yl]acetyl}octahydropyrazino[2,1-c][1,4]oxazin-3-yl]benzonitrile] |  | 0.19 | 
2,6-difluoro-3-[3R,9aS)-8-{[2-methyl-6-(1H-tetrazol-1-vl)pvridin-3-yl]acetyl}octahydropyrazino[2,1-c][1,4]oxazin-3-yl]benzonitrile [Example 89] |  |  | IC50 (read-out: Thallium Flux IC50): 0.07 µM
N#Cc1c(F)cc([C@@H]2CN3CCN(C(=O)Cc4ccc(-n5cnnn5)nc4)C[C@H]3CO2)cc1F [Example 110, 2,6-difluoro-4-[(3R,9aS)-8-{[6-(1H-tetrazol-1-yl)pyridin-3-yl]acetyl}octahydropyrazino[2,1-c][1,4]oxazin-3-yl]benzonitrile] |  | 0.37 | 
C[C@@H]1Cc2cc([C@]3(C)CN4CCN(C(=O)Cc5ccc(-n6cnnn6)nc5)C[C@H]4CO3)ccc2C(=O)O1 [Example 105, (3R)-3-methyl-6-[(3R,9a,S)-3-methyl-8-{[6-(1H-tetrazol-1-vl)pvridin-3-yl]acetyl}octahydropyrazino[2,1-c][1,4]oxazin-3-yl]-3,4-dihydro-1H-isochromen-1-one] |  | 0.35 | 
Cc1c([C@@H]2CN3CCN(C(=O)Cc4ccc(-n5cnnn5)nc4)C[C@H]3CO2)ccc(Cl)c1C#N [Example 65] |  | 0.15 | 
COc1cc(F)c([C@@H]2CN3CCN(C(=O)Cc4cnc(-n5cnnn5)nc4)C[C@H]3CO2)cc1C#N [Example 168, 4-fluoro-2-methoxy-5-[(3R,9aS)-8-{[2-(1H-tetrazol-1-yl)pyrimidin-5-yl]acetyl}octahydropyrazino[2,1-c][1,4]oxazin-3-yl]benzonitrile] |  | 0.35 | 
N#Cc1c(F)ccc([C@H]2CN3CCN(C(=O)Cc4ccc(-n5cnnn5)nc4)C[C@H]3CO2)c1Cl [Example 10, 2-chloro-6-fluoro-3-[(3S,9aS)-8-{[6-(1H-tetrazol-1-yl)pvridin-3-yl]acetyl}octahydropyrazino[2,1-c][1,4]oxazin-3-yl]benzonitrile] |  | 0.07 | 
N#Cc1c(F)ccc([C@H]2CN3CCN(C(=O)Cc4ccc(-n5cnnn5)cn4)C[C@H]3CO2)c1Cl [Example 52, 2-chloro-6-fluoro-3-[(3S,9aS)-8-{[5-(1H-tetrazol-1-yl)pyridin-2-yl]acetyl}octahydropyrazino[2,1-c][1,4]oxazin-3-yl]benzonitrile] | 0.11 |  | 
Cc1c([C@@H]2CN3CCN(C(=O)Cc4cnc(-n5cnnn5)nc4C(F)(F)F)C[C@H]3CO2)ccc(F)c1C#N [Example 159, 6-fluoro-2-methyl-3-[(3R,9aS)-8-{[2-(1H-tetrazol-1-yl)-4-(trifluoromethyl)pyrimidin-5-yl]acetyl}octahydropyrazino[2,1-c][1,4]oxazin-3-yl]benzonitrile] |  | 0.26 | 
O=C1OCCc2cc([C@@H]3CN4CCN(C(=O)Cc5ccc(-n6cnnn6)nc5)C[C@H]4CO3)ccc21 [Example 1] |  |  | IC50 (read-out: Thallium Flux IC50): 0.08 µM
Cc1cc(-n2cnnn2)ncc1CC(=O)N1CCN2C[C@@H](c3ccc4c(c3)CCOC4=O)OC[C@@H]2C1 [Example 44, 6-[(3R,9aS)-8-{[4-methyl-6-(1H-tetrazol-1-yl)pyridin-3-yl]acetyl}octahydropyrazino[2,1-c][1,4]oxazin-3-yl]-3,4-dihydro-1H-isochromen-1-one] |  | 0.17 | 
Cc1nc(-n2cnnn2)ncc1CC(=O)N1CCN2C[C@@H](c3ccc(F)c(C#N)c3C)OC[C@H]2C1 [Example 120, 6-fluoro-2-methyl-3-[(3R9aR)-8-{[4-methyl-2-(1H-tetrazol-1-yl)pyrimidin-5-yl]acetyl}octahydropyrazino[2,1-c][1,4]oxazin-3-yl]benzonitrile] |  | 0.2 | 
Cc1c([C@H]2CN3CCN(C(=O)Cc4ccc(-n5cnnn5)cn4)C[C@H]3CO2)ccc2c1COC2=O [Example 29, 4-methyl-5-[(3S,9aS)-8-{[5-(1H-tetrazol-1-yl)pyridin-2-yl]acetyl}octahydropyrazino[2,1-c][1,4]oxazin-3-yl]-2-benzofuran-1(3H)-one] | 0.11 |  | 
Cc1nc(CC(=O)N2CCN3C[C@@H](c4ccc(F)c(C#N)c4C)OC[C@@H]3C2)ccc1-n1cnnn1 [Example 128, 6-fluoro-2-methyl-3-[(3R,9aS)-8-{[6-methyl-5-(1H-tetrazol-1-vl)pvridin-2-yl]acetyl}octahydropyrazino[2,1-c][1,4]oxazin-3-yl]benzonitrile] |  | 0.18 | 
Cc1c(C#N)cccc1[C@@H]1CN2CCN(C(=O)Cc3ccc(-n4cnnn4)nc3)C[C@H]2CO1 [Example 91, 2-methyl-3-[(3R,9aS)-8-{[6-(1H-tetrazol-1-yl)pyridin-3-yl]acetyl}octahydropyrazino[2,1-c][1,4]oxazin-3-yl]benzonitrile] | 0.06 |  | 
COc1c([C@@H]2CN3CCN(C(=O)Cc4ccc(-n5cnnn5)cn4)C[C@H]3CO2)ccc(F)c1C#N [Example 62, 6-fluoro-2-methoxy-3-[(3R,9aS)-8-{[5-(1H-tetrazol-1-vl)pvridin-2-yl]acetyl}octahydropyrazino[2,1-c][1,4]oxazin-3-yl]benzonitrile] |  | 0.46 | 
